Test results from patent US7365082B2, “N-(substituted arylmethyl)-4-(disubstituted methyl)piperidines and piperazines” (Bayer CropScience AG, priority 2002, dated 2008).

System: tobacco budworm (Heliothis virescens [Fabricius])
Assay: surface-treated diet test against tobacco budworm
Format: in vivo
Conditions: 0.25 millimoles of candidate insecticide on the surface of the diet, second instar larvae, five-day exposure; for Percent Mortality: compared to the total number of insects infested; for Percent Growth Inhibition: inhibition of insect weight relative to untreated controls
Description: Candidate insecticides were evaluated for activity against the tobacco budworm (Heliothis virescens [Fabricius]) in a surface-treated diet test.
In this test one mL of molten (65-70° C.) wheat germ-based artificial diet was pipetted into each well of a four by six (24 well) multi-well plate (ID# 430345-15.5 mm dia.×17.6 mm deep; Corning Costar Corp., One Alewife Center, Cambridge, Mass. 02140). The diet was allowed to cool to ambient temperature before treatment with candidate insecticide.
For a determination of insecticidal activity, solutions of the candidate insecticides were prepared for testing using a Packard 204DT Multiprobe® Robotic System (Packard Instrument Company, 800 Research Parkway, Meriden, Conn. 06450), in which the robot first diluted a standard 50 millimolar DMSO solution of candidate insecticide with a 1:1 water/acetone solution (V/V) in a ratio of 1:7 stock solution to water/acetone. The robot subsequently pipetted 40 microliters of the so-prepared solution onto the surface of the diet in each of three wells in the 24 multi-well plate. The process was repeated with solutions of seven other candidate insecticides. Once treated, the contents of the multi-well plate were allowed to dry, leaving 0.25 millimoles of candidate insecticide on the surface of the diet, or a concentration of 0.25 millimolar. Appropriate untreated controls containing only DMSO on the diet surface were also included in this test.
For evaluations of the insecticidal activity of a candidate insecticide at varying rates of application, the test was established as described above using sub-multiples of the standard 50 millimolar DMSO solution of candidate insecticide. For example, the standard 50 millimolar solution was diluted by the robot with DMSO to give 5, 0.5, 0.05, 0.005, 0.0005 millimolar, or more dilute solutions of the candidate insecticide. In these evaluations there were six replicates of each rate of application placed on the surface of the diet in the 24 multi-well plate, for a total of four rates of application of candidate insecticide in each plate.
In each well of the test plate was placed one second instar tobacco budworm larvea, each weighing approximately five milligrams. After the larvae were placed in each well, the plate was sealed with clear polyfilm adhesive tape. The tape over each well was perforated to ensure an adequate air supply. The plates were then held in a growth chamber at 25° C. and 60% relative humidity for five days (light 14 hours/day).
After the five-day exposure period insecticidal activity for each rate of application of candidate insecticide was assessed as percent inhibition of insect weight relative to the weight of insects from untreated controls, and percent mortality when compared to the total number of insects infested.
The test compounds of formula I are identified by numbers that correspond to those in Table 1.

| Structure (SMILES) | Percent Mortality | Percent Growth Inhibition |
| --- | --- | --- |
| Cn1nnc(-c2ccc(CN3CCC(C(=NNC(=O)c4ccc(Br)cc4)c4ccc(OC(F)(F)F)cc4)CC3)cc2)n1 [Compound 140] | 100% | 100% |
| CCn1nnc(-c2ccc(CN3CCC(C(=NNc4ccc(C(F)(F)F)cc4)c4ccc(C(F)(F)F)cc4)CC3)cc2)n1 [Compound 118] | 100% | 96% |
| [O-][N+]1(Cc2ccc(Oc3ncccn3)cc2)CCN(C(c2ccc(C(F)(F)F)cc2)c2ccc(C(F)(F)F)cc2)CC1 [Compound 180, 2-{4-[(4-{bis[4-(trifluoromethyl)phenyl]methyl}1-oxypiperazinyl)methyl]phenoxy}pyrimidine] | 100% | 100% |
| Clc1ccc(C(c2ccc(Cl)cc2)N2CCN(Cc3ccc(Oc4ncccn4)cc3)CC2)cc1 [Compound 167] | 100% | 100% |
| Cn1nnc(-c2ccc(CN3CCC(C(=NNC(=O)c4ccccc4Cl)c4ccc(OC(F)(F)F)cc4)CC3)cc2)n1 [Compound 136] | 76% | 0% |
| COc1ccc(C(=O)NN=C(c2ccc(OC(F)(F)F)cc2)C2CCN(Cc3ccc(-c4nnn(C)n4)cc3)CC2)cc1 [Compound 146] | 100% | 100% |
| CCn1nnc(-c2ccc(CN3CCC(C(=NNCc4ccc(OC(F)(F)F)cc4)c4ccc(OC(F)(F)F)cc4)CC3)cc2)n1 [Compound 128] | 0% | 96% |
| Cn1nnc(-c2ccc(CN3CCC(C(=NNC(=O)c4cccc(F)c4)c4ccc(OC(F)(F)F)cc4)CC3)cc2)n1 [Compound 142] | 67% | 100% |
| CCn1nnc(-c2ccc(CN3CCC(C(=NNc4ccc(OC)cc4)c4ccc(OC(F)(F)F)cc4)CC3)cc2)n1 [Compound 116] | 100% | 100% |
| CCn1nnc(-c2ccc(CN3CCC(C(=NNS(=O)(=O)c4ccc(OC(F)(F)F)cc4)c4ccc(OC(F)(F)F)cc4)CC3)cc2)n1 [Compound 130] | 100% | 100% |
| Cn1nnc(-c2ccc(CN3CCC(C(=NNc4ccc(OC(F)(F)F)cc4)c4ccc(OC(F)(F)F)cc4)CC3)cc2)n1 [Compound 123] | 100% | 100% |
| Cn1nnc(-c2ccc(CN3CCC(C(=NNC(=O)c4ccc(Cl)cc4)c4ccc(OC(F)(F)F)cc4)CC3)cc2)n1 [Compound 139] | 100% | 100% |
| O=C(c1ccc(C(F)(F)F)cc1)C1CCNCC1 [Compound 3, 4-piperidyl 4-(trfluoromethyl)phenyl ketone] | 100% | 100% |
